We go through 7 compounds from the supplement of paper PMC11061612.

The structures appear in SMILES notation.

Test [1] relates to CTV-1 (T-Lymphoblastic Leukemia). Kind of test: Bliss excess, mean over the matrix (fraction); higher = more synergy. The gist of the method:
(§1)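 Cell lines grown in DMEM/F12 or RPMI with 10% FBS were plated in 1536-well plates and held 24 hours at 37°C, 5% CO2 before 72 hours of exposure to two-drug dose matrices, with DMSO typically at 0.2%. CellTiter-Glo 2.0 luminescence gave viability, which was converted to inhibition. Vehicle wells were set to 0 and blank wells to 1. Combination Emax is the second-highest inhibition in the matrix, and Bliss excess is the observed combination effect minus the expected EA + EB − EA·EB, where EA and EB are the single-agent effects.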

Test [2] has as its system G-292-Clone-A141B1 (Osteosarcoma). The test is described as above. In short, it runs like this:
as §1

For test [3], the system named is IHH-4 (Thyroid Gland Carcinoma). The description is as above. In short, it runs like this: as §1
Test [4] concerns J82 (Bladder Carcinoma). The description is as above. In short, it runs like this: as §1
For test [5], the system named is JiyoyeP-2003 (Burkitt's Lymphoma). The description is as above. In short, it runs like this: as §1
Test [6] deals with KARPAS-620 (Plasma Cell Myeloma). Described as above. In short, it runs like this: as §1
Test [7] deals with KATOIII (Gastric Carcinoma). Described as above. In short, it runs like this: as §1
In test [8] the test system is MFH-ino (Other Solid Carcinomas). Described as above. In short, it runs like this:
as §1

The test system of test [9] is NCI-H1299 (Non-Small Cell Lung Carcinoma). The description is as above. The gist of the method: as §1
A further test concerns RH-1 (Ewing's Sarcoma). The description is as above. The gist of the method:
as §1

Test [10] has as its system U-266 (Plasma Cell Myeloma). The description is as above. In short, it runs like this: as §1
Test [11] deals with 697 (B-Lymphoblastic Leukemia). Kind of test: combination Emax (second highest fraction inhibited in the dose matrix, 72 h); higher = more inhibition; extreme values may be limits of the assay. In short, it runs like this:
as §1

A further test concerns ES7 (Ewing's Sarcoma). The test is described as above. In short, it runs like this:
as §1

For test [12], the system named is J82 (Bladder Carcinoma). The description is as above. The gist of the method:
as §1

Test [13] has as its system LS-513 (Colorectal Carcinoma). The description is as above. The gist of the method: as §1
Test [14] relates to NCI-H1299 (Non-Small Cell Lung Carcinoma). Described as above. In short, it runs like this:
as §1

In test [15] the test system is SW1088 (Low Grade Glioma). The test is described as above. In short, it runs like this:
as §1

The test system of test [16] is SW1990 (Pancreatic Carcinoma). The test is described as above. In short, it runs like this:
as §1

Another test relates to CAL-78 (Chondrosarcoma). The test is described as above. The gist of the method:
as §1

Test [17] relates to NCI-H1793 (Lung Adenocarcinoma). Described as above. The gist of the method:
as §1
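Throughout, for Bliss excess, mean over the matrix: after 72 h of two-drug dosing.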

With `CCc1c2c(nc3ccc(O)cc13)-c1cc3c(c(=O)n1C2)COC(=O)[C@]3(O)CC` [SN-38] + O=C(c1cc(Cc2n[nH]c(=O)c3ccccc23)ccc1F)N1CCN(C(=O)C2CC2)CC1 [Olaparib] (first compound max 0.3 µM, 7x7, partner max 10 µM), the Bliss excess is 0.0665 in [1]; -0.0332 in [2]; 0.0356 in test [3]; 0.0532 in the test with J82 (Bladder Carcinoma) [4]; 0.104 in test [5]; -0.0221 in [6]. For the same compound, the Bliss excess was -0.0478 in test [7]; 0.0254 in test [8]; 0.129 in test [9]; 0.102 with RH-1 (Ewing's Sarcoma); 0.0526 in [10]. The “combination Emax” value came out at 1 in [11]; 1 in the test with ES7 (Ewing's Sarcoma); 0.861 in the test on J82 (Bladder Carcinoma) [12]; 0.665 in test [13]; 0.544 in test [14]; 0.434 in [15]. The “combination Emax” value in test [16] amounted to 0.419.

`COc1nnc2ccc(N3CCC(c4ccc(OCCN5CCN(C)C(=O)[C@H]5C)cc4)CC3)nn12` [AZD5153] + CN(CC[C@H](CSC1=CC=CC=C1)NC2=C(C=C(C=C2)S(=O)(=O)NC(=O)C3=CC=C(C=C3)N4CCC(CC4)[C@H](C5=CC=CC=C5C6=CC=C(C=C6)Cl)O)S(=O)(=O)C(F)(F)F)CCO [AZD4320] (first compound max 1 µM, 7x7, partner max 1 µM): the Bliss excess is 0.0057 in [1], 0.0292 with J82 (Bladder Carcinoma) [4], -0.0036 in [5] and -0.0001 in the test with RH-1 (Ewing's Sarcoma). Also, the “combination Emax” value in test [11] stood at 1; in the test with CAL-78 (Chondrosarcoma), 0.8; in the test on J82 (Bladder Carcinoma) [12], 0.397; in [17] it was 0.323.

On to `C[C@@H](c1ccc2nccn2c1)n1nnc2ncc(-c3cnn(C)c3)nc21` [Savolitinib] + CN(CC[C@H](CSC1=CC=CC=C1)NC2=C(C=C(C=C2)S(=O)(=O)NC(=O)C3=CC=C(C=C3)N4CCC(CC4)[C@H](C5=CC=CC=C5C6=CC=C(C=C6)Cl)O)S(=O)(=O)C(F)(F)F)CCO [AZD4320] (first compound max 1 µM, 7x7, partner max 1 µM), for which the Bliss excess in [1] is -0.0887; in the test on J82 (Bladder Carcinoma) [4], 0.0168; in test [5], -0.0082; in the test with RH-1 (Ewing's Sarcoma) it was 0.0096. Also, the “combination Emax” value in [11] amounted to 1; in the test with CAL-78 (Chondrosarcoma) it was 0.457; in the test with J82 (Bladder Carcinoma) [12], 0.604; in test [17] it was 0.168.

Take `CC(=O)c1c(C)c2cnc(Nc3ccc(N4CCNCC4)cn3)nc2n(C2CCCC2)c1=O` [Palbociclib] + CN(CC[C@H](CSC1=CC=CC=C1)NC2=C(C=C(C=C2)S(=O)(=O)NC(=O)C3=CC=C(C=C3)N4CCC(CC4)[C@H](C5=CC=CC=C5C6=CC=C(C=C6)Cl)O)S(=O)(=O)C(F)(F)F)CCO [AZD4320] (first compound max 10 µM, 7x7, partner max 1 µM): the Bliss excess in test [1] was -0.0365; in the test on J82 (Bladder Carcinoma) [4], -0.0667; in test [5], -0.0053; in the test with RH-1 (Ewing's Sarcoma), -0.0674. In addition, the “combination Emax” value was determined as 1 in test [11], 0.709 in the test on CAL-78 (Chondrosarcoma), 0.22 in the test on J82 (Bladder Carcinoma) [12] and 0.337 in test [17].

Regarding `Cc1c2c(nn1C)CSCc1cc(n(C)n1)CSc1cc(c3ccccc3c1)OCCCc1c(C(=O)O)n(C)c3c-2c(Cl)ccc13` [AZD5991] + C[C@@H](Nc1cc(F)cc(F)c1)c1cc(C(=O)N(C)C)cc2c(=O)cc(N3CCOCC3)oc12 [AZD8186] (first compound max 1 µM, 7x7, partner max 3 µM), the Bliss excess is -0.0144 in test [1]; -0.013 in [2]; 0.0184 in [3]; 0.0359 in the test with J82 (Bladder Carcinoma) [4]; 0.0635 in test [5]; -0.0113 in test [6]. Also, the Bliss excess in test [7] was -0.0132; in test [8] it was -0.0452; in test [9] it was -0.0181; in test [10], -0.0496. Moreover, the “combination Emax” value is 0.978 in test [11]; 0.875 with CAL-78 (Chondrosarcoma); 0.95 in the test with ES7 (Ewing's Sarcoma); 0.234 in the test with J82 (Bladder Carcinoma) [12]; 0.255 in [13]; 0.386 in test [14]. Besides, the “combination Emax” value in test [17] is 0.263; in test [15], 0.533; in test [16], 0.21.

With `CN(CCO)CC[C@H](CSc1ccccc1)Nc1ccc(S(=O)(=O)NC(=O)c2ccc(N3CCC([C@@H](O)c4ccccc4-c4ccc(Cl)cc4)CC3)cc2)cc1S(=O)(=O)C(F)(F)F` [AZD4320] + C[C@@H]1COCCN1C2=NC(=NC(=C2)C3(CC3)[S@](=N)(=O)C)C4=C5C=CNC5=NC=C4 [AZD6738] (first compound max 1 µM, 7x7, partner max 10 µM), the Bliss excess was -0.0498 in test [1]; -0.0265 in test [2]; -0.0231 in test [3]; -0.0144 in the test on J82 (Bladder Carcinoma) [4]; -0.0334 in test [5]; -0.0028 in test [6]. Also, the Bliss excess in [7] was -0.0397; in test [8], -0.0785; in test [9], -0.016; with RH-1 (Ewing's Sarcoma) it was 0.0321; in test [10], -0.0133. The “combination Emax” value in [11] was determined as 1; in the test on CAL-78 (Chondrosarcoma) it was 0.861; with ES7 (Ewing's Sarcoma), 1; with J82 (Bladder Carcinoma) [12], 0.524; in [13], 0.821; in test [17], 0.498. In addition, the figures for the “combination Emax” value in test [15] and in test [16] were 0.586 and 0.845, respectively.

`CN(CCO)CC[C@H](CSc1ccccc1)Nc1ccc(S(=O)(=O)NC(=O)c2ccc(N3CCC([C@@H](O)c4ccccc4-c4ccc(Cl)cc4)CC3)cc2)cc1S(=O)(=O)C(F)(F)F` [AZD4320] + CN(C)CCCOc1ccc(-c2ccc3ncc4c(c3c2)n(C2CCOCC2)c(=O)n4C)cn1 [AZD0156] (first compound max 1 µM, 7x7, partner max 1 µM): the Bliss excess in test [1] is -0.0055; in [2] it was -0.015; in [3], -0.022; with J82 (Bladder Carcinoma) [4], -0.0464; in [5], -0.0211; in test [6] it was 0.0092. Moreover, the Bliss excess in [7] is -0.034; in test [8], -0.059; in test [9], -0.0462; in the test on RH-1 (Ewing's Sarcoma), -0.024; in [10], 0.0462. For the same compound, the “combination Emax” value came to 1 in test [11]; 0.747 in the test with ES7 (Ewing's Sarcoma); 0.122 in the test with J82 (Bladder Carcinoma) [12]; 0.2 in [13]; 0.149 in test [14]; 0.253 in [17]. Also, the “combination Emax” value turned out to be 0.164 in test [15] and 0.079 in test [16].
